Results: patent US11896601B2, “Composition for prevention or treatment of allergic disease including inotodiol compound as active ingredient” (CARBOEXPERT INC., priority 2018, dated 2024)

How the values were obtained:
[1] = tested on: mast cell degranulation (MCPT-1); test: Passive systemic anaphylaxis: MCPT-1 in blood; type: in vivo, mouse; conditions: passive systemic anaphylaxis (anti-DNP-IgE, DNP-BSA i.v.); oral once a day for 3 days; inotodiol 20, ethanol extract 320, cholesterol 20, dexamethasone 10, imatinib 20 mg/kg; FIG. 5(B)
Experimental: (§1) On the third day after oral administration, 3 μg of anti-dinitrophenol (DNP)-IgE was intravenously injected, and after 24 hours, mast cell degranulation was induced by intravenous injection of 80 μg of DNP-conjugated bovine serum albumin (BSA). The rectal temperature of mice induced mast cell degranulation was measured, and the amount of MCPT-1 in the blood was analyzed.

[2] = tested on: CD4^+ T cells expressing DO11.00 TCR; test: Adoptive transfer of CFSE-stained DO11.10 TCR CD4+ T cells, ovalbumin-induced division (flow cytometry); type: in vivo, mouse; conditions: BALB/C mice; oral once a day for four days; inotodiol 20 mg/kg, ethanol extract 320 mg/kg, imatinib 10 mg/kg; five days after ovalbumin injection; FIG. 4(B)
Experimental: (§2) In order to examine the effect of an inotodiol compound or a chaga mushroom extract containing an inotodiol compound on CD4^+ T cell activity regulation, analysis of expression level of cytokine produced by Th2 CD4^+ T cell and adoptive transfer experiments using CD4^+ TCR transgenic T cells that express DO11.00 TCR, i.e., the ovalbumin-derived peptide specific T cell receptor (TCR), were performed.
Experiments to measure a degree of ovalbumin-derived peptide specific T cell immune response from an animal experiment were performed as follows. Cells were isolated from the lymph nodes of transgenic mice expressing DO11.10TCR. The isolated cells were fluorescence-stained with carboxyfluorescein succinimidyl ester (CFSE), and 2×10^6 cells were injected intravenously into BALB/C mice. Cells were injected intraperitoneally with ovalbumin (50 μg) and alum to induce division of CD4^+ T cells expressing DOII.00 TCR. Oral administration of 20 mg/kg of the inotodiol compound, 320 mg/kg of the chaga mushroom ethanol extract, 10 mg/kg of dexamethasone, 10 mg/kg of imatinib, or 20 mg/kg of the cholesterol was performed once a day for four days starting from one day after ovalbumin injection. After five days of ovalbumin injection, the cells were isolated from BALB/C lymph nodes, stained with anti-CD4 antibody and anti-DO11.10 antibody, and measured CFSF fluorescence intensity of the CD4^+ T cell expressing DOII.00 TCR using flow cytometry to determine the cell division degree. Then, the number of cells was measured. Here, the CFSF fluorescence intensity decreased as the cell division increases.

[3] = tested on: food allergy-induced mouse model; test: Anaphylaxis symptom score in ovalbumin food allergy mouse model; type: in vivo; conditions: ovalbumin food allergy BALB/C mice; oral daily; inotodiol, dexamethasone, cholesterol 20 mg/kg; extract and fractions 320 mg/kg; score 0-4 (Table 3); FIG. 1(B)
Experimental: (§3) To prepare allergy mouse models, 5-week-old male BALB/C mice were used. Food allergy models were prepared using ovalbumin of chicken as an allergy-inducing material (allergen).
(§4) For immunization of the mice, 20 μg of ovalbumin was mixed with 2 mg of alum, and the mixture was intraperitoneally injected to the mice two times every two weeks. Food allergy induction was induced by performing the second immunization injection and two weeks thereafter, 50 mg of ovalbumin was orally administered thereto five times every three days to cause an allergic response. […] Here, as a positive control, a mice group was used to which dexamethasone was administered every day. 50 mg of ovalbumin alone or the chaga mushroom extract, the fraction, or the inotodiol compound was lastly administered thereto, followed by observation on symptoms caused by allergy one hour thereafter.

[4] = tested on: egg white protein-specific IgE; test: Serum IgE concentration by ELISA, food allergy mouse model; type: in vivo; conditions: ovalbumin food allergy BALB/C mice, serum one day after last administration, FIG. 3(A)
Experimental: as §4

[5] = tested on: cytokine produced by Th2 CD4^+ T cells (IL-5, IL-13, IFN-γ); test: Cytokine production by mesenteric lymph node cells of treated food allergy mice (ELISA); type: in vivo, mouse; conditions: mLN cells of treated food allergy mice cultured three days with 100 μg/mL ovalbumin (OVA); FIG. 4(A)
Experimental: as §2
For the expression of cytokine, a sample was treated in the same manner as in Experimental Example 1, and the cells were isolated from the mesenteric lymph node (mLN) of mice of each group after one day. At this time, a group treated with 10 mg/kg of dexamethasone, a group treated with 20 mg/kg of imatinib (Gleevec), which is used as a mast cell […] therapeutic agent, and a group treated with 20 mg/kg of cholesterol that is similar in structure to the inotodiol compound were added. The isolated cells were dispensed into wells of a 96-well plate at a rate of 1×10^6 cells/well. RPMI complete medium (containing 10% fetal bovine serum (FBS), penicillin, streptomycin, and glutamine) containing ovalbumin or RPMI complete medium containing 100 μg/mL of ovalbumin was inoculated and culture for three days under a condition of 37° C. and 5% CO2. […]

[6] = tested on: mast cell protease-1 (MCPT-1); test: Serum MCPT-1 concentration by ELISA, food allergy mouse model; type: in vivo; conditions: ovalbumin food allergy BALB/C mice, serum one day after last administration, FIG. 3(B)
Experimental: as §4

[7] = tested on: eosinophils in small intestine; test: Eosinophil infiltration in small intestine (H&E staining), food allergy mouse model; type: in vivo; conditions: ovalbumin food allergy BALB/C mice; H&E stained small intestine sections; FIG. 2(A)
Experimental: as §3, §4
The mice of each experimental group in Experimental Example 1 were anesthetized and cut the abdomen. Then, the small intestine was removed, fixed with formalin, treated with paraffin, permeated with paraffin, and microsectioned using microtome, thereby obtaining tissue sections. The obtained small intestine sections were stained with hematoxylin and eosin (H&E) to observe eosinophil cells.

mast cell degranulation = test: Passive systemic anaphylaxis: rectal temperature; type: in vivo, mouse; conditions: passive systemic anaphylaxis (anti-DNP-IgE, DNP-BSA i.v.); oral once a day for 3 days; inotodiol 20 mg/kg, ethanol extract 320 mg/kg; FIG. 5(A)
Experimental: as §1

[8] = tested on: mast cells in small intestine; test: Number of mast cells in small intestine (toluidine staining), food allergy mouse model; type: in vivo; conditions: ovalbumin food allergy BALB/C mice; toluidine stained small intestine sections; FIG. 2(B)
Experimental: as §3, §4

[9] = tested on: food allergy-induced mouse model; test: Stool observation (diarrhea score) in ovalbumin food allergy mouse model; type: in vivo; conditions: ovalbumin food allergy BALB/C mice; oral daily; inotodiol, dexamethasone, cholesterol 20 mg/kg; extract and fractions 320 mg/kg; score 0-4 (Table 4); FIG. 1(C)
Experimental: as §3, §4

Row | Structure (SMILES) | concentration of MCPT-1 in the blood after induced mast cell degranulation [1] | CFSE fluorescence intensity of CD4+ T cell expressing DO11.00 TCR (cell division degree) [2] | number of CD4+ T cells expressing DO11.00 TCR [2] | anaphylaxis score [3] | concentration of egg white protein-specific IgE in serum [4] | amount of IL-5, IL-13, and IFN-γ (cytokine expression by Th2 CD4+ T cells) [5] | concentration of MCPT-1 in serum [6] | infiltration of eosinophils in the small intestine (number of stained eosinophil cells) [7] | rectal temperature after induced mast cell degranulation (mast cell degranulation) | number of mast cells in the small intestine [8] | diarrhea symptom score (stool symptom score) [9]
1 | Cc1ccc(NC(=O)c2ccc(CN3CCN(C)CC3)cc2)cc1Nc1nccc(-c2cccnc2)n1 [Imat., imatinib] | level of increase in concentration of MCPT-1 was significantly decreased | no difference in the CFSE fluorescence intensity and the number of cells, as compared with the unimmune group | no difference in the CFSE fluorescence intensity and the number of cells, as compared with the unimmune group | – | – | – | – | – | – | – | –
2 | CC(C)=CC[C@@H](O)[C@@H](C)[C@H]1CC[C@@]2(C)C3=C(CC[C@]12C)[C@@]1(C)CC[C@H](O)C(C)(C)[C@@H]1CC3 [Inotodiol, inotodiol] | level of increase in concentration of MCPT-1 was significantly decreased | – | significantly increased number of CD4^+T cells | lower anaphylaxis score than the food allergy-induced group | no substantial change in the concentration of IgE | not substantially different from the expression amount of IL-5, IL-13, and IFN-γ | decreased significantly | decreased infiltration of eosinophils | did not decrease the rectal temperature | decreased number of mast cells | lower than that of the food allergy-induced group
3 | CC(C)CCC[C@@H](C)[C@H]1CC[C@H]2[C@@H]3CC=C4C[C@@H](O)CC[C@]4(C)[C@H]3CC[C@]12C [cholesterol, reference compound] | MCPT-1 did not decrease | – | – | – | – | – | – | little decrease in the number of eosinophils and mast cells | – | little decrease in the number of eosinophils and mast cells | –
